Literature values, collected in US8790688B2, “Wound care device for local treatment of pain in a wound” (Coloplast A/S, priority 2001, dated 2014).

Details: reported lowest range for systemic effect

Point of comparison: `CN1C(C(=O)Nc2ccccn2)=C(O)c2ccccc2S1(=O)=O` [Piroxicam], “plasma concentration for systemic effect in the lowest range” value 1000 ng/mL. Against it:
- CC(C(=O)O)c1cccc(C(=O)c2ccccc2)c1 (stereo not shown) [Ketoprofen] — 3-fold higher, 3000 ng/mL
- CC(=O)Oc1ccccc1C(=O)O [Acetylsalicylic acid] — 270-fold higher, 270000 ng/mL
- CC(C)Cc1ccc(C(C)C(=O)O)cc1 (stereo not shown) [Ibuprofen] — 10-fold higher, 10000 ng/mL
